For 10 molecules, normalised viability and drug sensitivity score results are on record in the supplement of paper PMC4862054.

Where “and” joins values, the source holds several entries; their conditions need not be identical. Equal values may be shown once.

Holding throughout (settings): incubation time: 72 h
The test system of assay [1] is CAL-51. The experiment in a line: normalised viability (% of control), CellTiter-Blue; higher = more viable cells (about 100 = DMSO control). The gist of the method: (§1)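 The reported quantity is normalised viability at a single listed concentration of the series. Compound in 5 µl medium was pre-dispensed into 384-well plates and 20 µl of breast cancer cell suspension was added for 72 h. A 2 h, 37 °C CellTiter-Blue step (2.5 µl) preceded fluorescence reading at 560/590 nm, and plates were normalised to vehicle (100) and a positive kill control (0).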
A general note: The colour change of resazurin is a common sign of viable cells or microbes.

The subject of assay [2] is CAL-85-1. Described as above. The gist of the method:
as §1

The test system of assay [3] is DU-4475. Described as above. The method, boiled down:
as §1

Assay [4] concerns HDQ-P1. The assay is described as above. The gist of the method: as §1
In assay [5] the test system is MDA-MB-453. Described as above. The method, boiled down:
as §1

Assay [6] deals with CAL-120. Described as above. The method, boiled down:
as §1

The test system of assay [7] is SK-BR-3. The description is as above. The gist of the method:
as §1

A further assay relates to BT-474. Description: drug sensitivity score (DSS), CellTiter-Glo (DSS (AUC-based score)); higher = stronger drug effect (viability inhibition or cytotoxicity); extreme values may be limits of the assay. The gist of the method:
(§2)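 After 72 h of incubation in 384-well plates with compound at 5 concentrations (10-fold steps, 10,000-fold range set per compound), breast cancer cell lines seeded in 20 µl suspension were read first for CellTox Green fluorescence at 485/520 nm. CellTiter-Glo luminescence was measured next, after 10 min at room temperature. Normalisation on each plate used 0.1 % DMSO and a positive kill control, and the drug sensitivity score was computed from the area under the fitted dose-response curve.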

The next assay relates to BT-549. Described as above. The method, boiled down: as §2
Assay [8] has as its system CAL-120. The description is as above. The gist of the method:
as §2

The next assay has as its system CAL-148. The assay is described as above. The method, boiled down:
as §2

The test system of assay [9] is CAL-51. The assay is described as above. The method, boiled down:
as §2

Assay [10] relates to CAL-85-1. Described as above. The method, boiled down:
as §2

Assay [11] concerns DU-4475. The assay is described as above. The method, boiled down:
as §2

The subject of the next assay is HCC1143. Described as above. The method, boiled down:
as §2

Another assay relates to HCC1599. The description is as above. The method, boiled down: as §2
The next assay concerns HCC1937. The assay is described as above. The gist of the method: as §2
The test system of assay [12] is HDQ-P1. The description is as above. The gist of the method: as §2
In another assay the test system is Hs578T. The assay is described as above. The method, boiled down: as §2
In a further assay the test system is MCF-10A. The description is as above. The method, boiled down:
as §2

In a further assay the test system is MDA-MB-231. Described as above. The gist of the method: as §2
For another assay, the system named is MDA-MB-436. The assay is described as above. The method, boiled down: as §2
For assay [13], the system named is MDA-MB-453. The description is as above. The gist of the method: as §2
The subject of the next assay is MDA-MB-468. The description is as above. The method, boiled down:
as §2

The next assay has as its system MFM-223. The description is as above. The gist of the method: as §2
Assay [14] has as its system SK-BR-3. Described as above. The method, boiled down: as §2

As for `CC1(C)CNc2cc(NC(=O)c3cccnc3NCc3ccncc3)ccc21` [Motesanib] (10000 nM), the normalised viability with CAL-51 [1] stood at 97.2%; with CAL-85-1 [2], 78.2%; in the assay on DU-4475 [3], 88.6%; in the assay on HDQ-P1 [4], 92.2%; in the assay with MDA-MB-453 [5], 69.4%.
Take `Oc1ncnc2[nH]ncc12` [Allopurinol] (10000 nM): the normalised viability was found to be 92.5% in the assay with CAL-51 [1]; 109% with CAL-85-1 [2]; 115% in the assay on DU-4475 [3]; 99.2% in the assay on HDQ-P1 [4]; 108% in the assay with MDA-MB-453 [5].
For `Cc1sc2c(c1C)C(c1ccc(Cl)cc1)=N[C@@H](CC(=O)OC(C)(C)C)c1nnc(C)n1-2` [(+)JQ1] (10000 nM), in that order: 68.3%, 44.4%, 1.08%, 108% and 18.3%.
`Nc1nc2[nH]cnc2c(=S)[nH]1` [Thioguanine]: the normalised viability with CAL-120 [6] (10 nM) worked out at 94.1%; in the assay on CAL-120 [6] (1000 nM), 67.2%; in the assay with CAL-120 [6] (10000 nM), 34.9%; with SK-BR-3 [7] (10 nM) it was 99.7%; in the assay with SK-BR-3 [7] (1000 nM), 103%; in the assay on SK-BR-3 [7] (10000 nM), 49.6%. In addition, the drug sensitivity score in the assay on BT-474 was 12; in the assay with BT-549 it was 1.98; in the assay with CAL-120 [8], 6.5; in the assay on CAL-148, 1.29; with CAL-51 [9] it was 5.29; in the assay with CAL-85-1 [10], 6.09. Moreover, the drug sensitivity score in the assay on DU-4475 [11] worked out at 4.33; with HCC1143 it was 0.8; in the assay on HCC1599 it was 5.01; in the assay on HCC1937 it was 8.45; with HDQ-P1 [12] it was 7.16; with Hs578T, 6.84. The drug sensitivity score was found to be 0 with MCF-10A; 10.2 in the assay on MDA-MB-231; 4.37 in the assay with MDA-MB-436; 1.4 in the assay on MDA-MB-453 [13]; 1.72 in the assay with MDA-MB-468; 0 in the assay on MFM-223. In the assay with SK-BR-3 [14], this molecule displayed a drug sensitivity score of 0.
For `Cn1cc(C2=Nc3cc(NC(=O)C(N)C4CCCCC4)cc4c3C2=CNNC4=O)cn1` (stereo not given) (10000 nM), the normalised viability in the assay with CAL-51 [1] amounted to 30%; in the assay with CAL-85-1 [2] it was 48.9%; with DU-4475 [3], 41.9%; in the assay on HDQ-P1 [4], 35.2%; in the assay with MDA-MB-453 [5], 16.3%.
Take `C[C@]12CC[C@@H]3c4ccc(OC(=O)N(CCCl)CCCl)cc4CC[C@H]3[C@@H]1CC[C@@H]2O` [Estramustine]: the normalised viability was 113% in the assay with CAL-120 [6] (0.99 nM); 107% with CAL-120 [6] (99 nM); 105% with CAL-120 [6] (990 nM); 99.1% with SK-BR-3 [7] (0.99 nM); 97.5% with SK-BR-3 [7] (99 nM); 101% in the assay with SK-BR-3 [7] (990 nM). The drug sensitivity score with BT-474 was 0; in the assay on BT-549, 0; in the assay on CAL-120 [8] it was 0; with CAL-148, 0; in the assay with CAL-51 [9], 2.19; with CAL-85-1 [10] it was 0. The drug sensitivity score with DU-4475 [11], with HCC1143, in the assay on HCC1599, with HCC1937, in the assay with HDQ-P1 [12] and in the assay on Hs578T was 0 each time. Further, the drug sensitivity score in the assay with MCF-10A was 0; with MDA-MB-231, 0; with MDA-MB-436 it was 0; in the assay on MDA-MB-453 [13] it was 0; in the assay on MDA-MB-468, 0.683; in the assay with MFM-223, 0. For the same molecule, the drug sensitivity score with SK-BR-3 [14] was found to be 0.
Take `CC(=O)O[C@@]12CO[C@@H]1C[C@H](O)[C@@]1(C)C(=O)[C@H](O)C3=C(C)[C@@H](OC(=O)[C@H](O)[C@@H](NC(=O)OC(C)(C)C)c4ccccc4)C[C@@](O)([C@@H](OC(=O)c4ccccc4)[C@H]21)C3(C)C` [Docetaxel] (1000 nM): the normalised viability in the assay with CAL-51 [1] was 16.2% and 12.2%; in the assay on CAL-85-1 [2], 32.1% and 32.3%; in the assay on DU-4475 [3], 11.7% and 10.5%; with HDQ-P1 [4] it was 51.3% and 42.4%; in the assay on MDA-MB-453 [5], 23.1% and 24.4%.
For `COc1cc2c(cc1O)CC[C@@H]1[C@@H]2CC[C@]2(C)[C@@H](O)CC[C@@H]12` [2-methoxyestradiol] (10000 nM), the normalised viability in the assay on CAL-51 [1] is 20.6%; with CAL-85-1 [2], 57.5%; with DU-4475 [3] it was 28.7%; in the assay on HDQ-P1 [4], 47.3%; with MDA-MB-453 [5], 36.6%.
Regarding `CC[C@@H]1C(=O)OC[C@@H]1Cc1cncn1C` [Pilocarpine] (40000 nM), the normalised viability stood at 84.5% in the assay on CAL-51 [1]; 64.4% with CAL-85-1 [2]; 68.7% with DU-4475 [3]; 135% in the assay with HDQ-P1 [4]; 43.7% in the assay with MDA-MB-453 [5].
Regarding `Cn1cnc2c(F)c(Nc3ccc(Br)cc3Cl)c(C(=O)NOCCO)cc21` [Selumetinib], the normalised viability in the assay with CAL-120 [6] (10 nM) amounted to 78.8%; in the assay on CAL-120 [6] (1000 nM) it was 78.6%; with CAL-120 [6] (10000 nM), 63.3%; with SK-BR-3 [7] (10 nM) it was 98.7%; with SK-BR-3 [7] (1000 nM), 114%; in the assay on SK-BR-3 [7] (10000 nM), 93.6%. For the same molecule, the drug sensitivity score stood at 7.93 in the assay with BT-474; 0.661 with BT-549; 3 in the assay with CAL-120 [8]; 0 in the assay with CAL-148; 0 in the assay with CAL-51 [9]; 0 in the assay on CAL-85-1 [10]. The drug sensitivity score in the assay on DU-4475 [11] is 19.9; in the assay on HCC1143 it was 0; in the assay on HCC1599, 0.803; with HCC1937, 0; in the assay with HDQ-P1 [12], 11.1; in the assay with Hs578T it was 0. In addition, the drug sensitivity score worked out at 17.3 in the assay with MCF-10A; 5.56 in the assay with MDA-MB-231; 0.63 with MDA-MB-436; 0 in the assay on MDA-MB-453 [13]; 2.35 with MDA-MB-468; 0 in the assay on MFM-223. In addition, the drug sensitivity score in the assay on SK-BR-3 [14] is 0.
